Source: US20060240057A1, “Termiticide compositions” (priority 2003, published 2006)
Where two headings read alike, the source gives them in different places.

Tests used:
[1] = test system: termite (Reticulitermes flavipes) workers; test: Termite mortality by soil applications of combinations of bifenthrin and acetamiprid (soil column in glass tube); format: in vivo; conditions: soil application, read-out: Percent Mortality; for mortality at 500 ppm: Acetamiprid @ 500 ppm; for mortality at 60 ppm: Bifenthrin @ 60 ppm
Procedure: (§1) Test compositions made up of Talstar® Termiticide/Insecticide and a 70% wettable powder of acetamiprid in distilled water were prepared that provided appropriate rates of application of combinations of bifenthrin and acetamiprid, as well as bifenthrin and acetamiprid alone.
Glass tubing, 13 mm in diameter, was then cut into 20 cm sections in sufficient quantity to conduct the test. Each […] section of tubing was marked at 5 cm, 8 cm, and 18 cm distances from one end of the tube designated as the bottom. Each section of tubing was packed with a sandy soil (3% wt/wt moisture content) by first placing a section of a 1 cm diameter wooden dowel into the bottom of the glass tube up to the 8 cm marking, then introducing approximately 2 cm of soil into the other end of the tube designated as the top. The soil was then gently packed into the tube from the top using a second section of the 1 cm diameter wooden dowel. The process was repeated using 2 cm aliquots of soil until the soil level was adjacent to the 18 cm marking, thereby providing a column of soil 10 cm in height. An agar plug, which was formed in a section of the 13 mm diameter glass tubing of the type used to conduct these tests, was cut into 3 cm sections. A 3 cm section of agar was then gently pushed into the bottom of each tube containing the soil until the agar plug firmly touched the soil at the 8 cm marking, thereby creating a 5 cm void in the bottom of each section of tubing. Following placement of the agar plugs in each section of tubing; two sections of applicator sticks cut in 6 cm lengths were inserted into the bottom end of each tube thereby forcing about 1 cm of each stick into the agar plug to hold the agar plug in place. Plastic caps, with an inside diameter of 13 mm and holes drilled in their centers, were placed on the bottom ends of each of the sections of tubing. A sharpened applicator stick was then inserted into the hole in each plastic cap through the agar plug to the intersection of the agar plug and the soil. The applicator stick was then gently removed in a rotating manner to provide a means for a free flow of liquid through the soil. Each section of tubing was then stood upright, and 0.5 niL aliquots of each suspension of bifenthrin, acetamiprid or combinations thereof, as prepared above, were pipetted onto the top of the soil. Upon application of the test suspensions the top of each section of tubing was covered with a small piece of aluminum foil. The tubes were then allowed to stand for about 20 hours to allow movement of the termiticide(s) downward into the soil. After this time a plastic cap of 13 mm inside diameter was placed on the top of each section of tubing. The plastic caps with the holes drilled in their centers were removed from the bottom of each section of tubing, and a piece of 0.5 cm×4 cm filter paper was then placed between the two sections of applicator sticks. Fifty termite (Reticulitermes flavipes) workers were then inserted into the 5 cm void in the bottom of each section of tubing. New plastic caps without holes drilled in their centers were placed on the bottom of each section of tubing. The sections of tubing were then stored in an upright position, with the termites located below the soil. At 1, 3, 6, 8, 10, 13, 15, 17, 20, and 22 days after treatment (DAT), termite mortality was measured.

[2] = test system: termites (Reticulitermes flavipes); test: Termite mortality by direct application (track sprayer) of combinations of bifenthrin and acetamiprid to termites; format: in vivo; conditions: for mortality at 100 ppm / mortality at 200 ppm / mortality at 10 ppm / mortality at 50 ppm: Reticulitermes flavipes, read-out: Percent Mortality
Procedure: as §1
Solutions of the test materials were applied directly to 50 termites (Reticulitermes flavipes) per petri plate using a track sprayer calibrated to deliver 1.2 ml per petri plate at 40 psi. After application, petri dishes with treated termites were inverted onto fresh petri plates containing dry filter paper. After all applications were completed, termites were then transferred to petri dishes containing moist soil with cardboard as a food source. Expired termites were removed at each reading. At 0 hours, 1 hour, 2 hours, 1 day, and 2 days after treatment (HAT or DAT, respectively), termite mortality was measured. The following calculation determined whether the combination treatments provided enhanced activity over what would be expected based on the activity of each active ingredient separately: [formula]
A and B refer to the two separate treatments of two different active ingredients at specific rates.

C/C(=N\C#N)N(C)Cc1ccc(Cl)nc1 [Acetamiprid, acetamiprid]
mortality at 500 ppm ([1]; 24 h, 1 DAT): 5%
mortality at 500 ppm ([1]; 72 h, 3 DAT): 84%
mortality at 500 ppm ([1]; 144 h, 6 DAT): 100%
mortality at 500 ppm ([1]; 192 h, 8 DAT): 100%
mortality at 500 ppm ([1]; 240 h, 10 DAT): 100%
mortality at 500 ppm ([1]; 312 h, 13 DAT): 100%
mortality at 500 ppm ([1]; 360 h, 15 DAT): 100%
mortality at 500 ppm ([1]; 408 h, 17 DAT): 100%
mortality at 500 ppm ([1]; 480 h, 20 DAT): 100%
mortality at 500 ppm ([1]; 528 h, 22 DAT): 100%
Percent Mortality ([2]; Acetamiprid @ 100 ppm, 1 HAT): 0%
Percent Mortality ([2]; Acetamiprid @ 100 ppm, 2 HAT): 0%
Percent Mortality ([2]; Acetamiprid @ 200 ppm, 1 HAT): 0%
Percent Mortality ([2]; Acetamiprid @ 200 ppm, 2 HAT): 0%
mortality at 100 ppm ([2]; 24 h, Acetamiprid @ 100 ppm, 1 DAT): 16%
mortality at 200 ppm ([2]; 24 h, Acetamiprid @ 200 ppm, 1 DAT): 35%
mortality at 100 ppm ([2]; 48 h, Acetamiprid @ 100 ppm, 2 DAT): 78%
mortality at 200 ppm ([2]; 48 h, Acetamiprid @ 200 ppm, 2 DAT): 88%
mortality at 100 ppm ([2]; Acetamiprid @ 100 ppm, 0 HAT): 0%
mortality at 200 ppm ([2]; Acetamiprid @ 200 ppm, 0 HAT): 0%

Cc1c(COC(=O)[C@@H]2[C@H](/C=C(\Cl)C(F)(F)F)C2(C)C)cccc1-c1ccccc1 (racemic) [Bifenthrin, bifenthrin]
mortality at 60 ppm ([1]; 24 h, 1 DAT): 6%
mortality at 60 ppm ([1]; 72 h, 3 DAT): 6%
mortality at 60 ppm ([1]; 144 h, 6 DAT): 11%
mortality at 60 ppm ([1]; 192 h, 8 DAT): 13%
mortality at 60 ppm ([1]; 240 h, 10 DAT): 13%
mortality at 60 ppm ([1]; 312 h, 13 DAT): 13%
mortality at 60 ppm ([1]; 360 h, 15 DAT): 16%
mortality at 60 ppm ([1]; 408 h, 17 DAT): 16%
mortality at 60 ppm ([1]; 480 h, 20 DAT): 16%
mortality at 60 ppm ([1]; 528 h, 22 DAT): 16%
Percent Mortality ([2]; Bifenthrin @ 10 ppm, 1 HAT): 0%
Percent Mortality ([2]; Bifenthrin @ 10 ppm, 2 HAT): 0%
Percent Mortality ([2]; Bifenthrin @ 50 ppm, 1 HAT): 0%
Percent Mortality ([2]; Bifenthrin @ 50 ppm, 2 HAT): 0%
mortality at 10 ppm ([2]; 24 h, Bifenthrin @ 10 ppm, 1 DAT): 11%
mortality at 50 ppm ([2]; 24 h, Bifenthrin @ 50 ppm, 1 DAT): 63%
mortality at 10 ppm ([2]; 48 h, Bifenthrin @ 10 ppm, 2 DAT): 26%
mortality at 50 ppm ([2]; 48 h, Bifenthrin @ 50 ppm, 2 DAT): 96%
mortality at 10 ppm ([2]; Bifenthrin @ 10 ppm, 0 HAT): 0%
mortality at 50 ppm ([2]; Bifenthrin @ 50 ppm, 0 HAT): 0%
